The values that follow come from patent publication US7759350B2, “Pyrimidine carboxamides” (Orchid Research Laboratories Ltd., priority 2005, dated 2010).

Common to all, as to assay type: cell-based
The subject of experiment [1] is NCI-H460. The experiment can be described thus: Anti-cancer screen (MTT), NCI-H460. As to conditions: Homo sapiens, NCI-H460; 48 hours, MTT.
Experiment [2] deals with DU145. The experiment can be described thus: Anti-cancer screen (MTT), DU145. As to conditions: Homo sapiens, DU-145, 48 hours.
Experiment [3] concerns IL-6. In words: In vitro measurement of IL-6 in human PBMC. To be noted: Conc. 0.1 μM, LPS. A digest of the protocol: (§1)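 Human PBMC (0.5 million/well) preincubated with compound 15 min at 37° C., then stimulated with E. coli LPS (1 μg/ml) for 18 h at 37° C. Cytokine in culture medium quantified by ELISA.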
In experiment [4] the test system is IL-1β. In words: In vitro measurement of IL-1β in human PBMC. To be noted: Conc. 0.1 μM, LPS. An outline of the steps:
as §1

The GI50 is the concentration giving 50% growth inhibition. Read a low GI50 as more potent growth inhibition. Usually inhibition stands for the share of the control response that was lost under treatment. Read a high inhibition as strong suppression. For the molecule `CNc1nc(-c2ccncc2)nc(SC)c1C(=O)Nc1ccc(OC)cc1` [Example 14, N-(4-Methoxyphenyl)-4-(methylamino)-6-(methylthio)-2-pyridin-4-ylpyrimidine-5-carboxamide], the GI50 in experiment [1] was 5.15 µM; in experiment [2], 2.75 µM. The molecule further showed an inhibition at 0.1 µM in experiment [3] of 28.2%. The “IL-1β Inhibition (%)” value in experiment [4] was “Not active”.
